Measured values from PubChem BioAssay AID1845205 (Molecular Pharmacology Branch, DTP, NCI, 2023).
Several values for one entry are separate records, joined by “and”; a condition that tells them apart may be missing. Identical values can stand only once.

Test system: MPNST multicellular tumor spheroids, viability % test/control
Experiment: Anticancer human tumor MPNST cell line growth inhibition;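 note: spheroids exposed to agents for seven days after three days of growth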;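 for viability, T/C: luminescence signal used as surrogate for viable cell amount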
Conditions: for viability, T/C: stronger effect = lower value; active = viability on the fitted dose curve at most 10% of control; inactive = the rest
Method in brief: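 Single agents and combinations were tested on spheroids built from tumor cells plus HUVEC and hMSC, at half-log dilutions starting at or near clinical Cmax, else 10 microM; final DMSO 0.25% (v/v).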

[1] = curve of first compound, second compound 0.003 µM
[2] = curve of first compound, second compound 0.00949 µM
[3] = curve of first compound, second compound 0.03 µM
[4] = curve of first compound, second compound 0.0949 µM
[5] = curve of first compound, second compound 0.3 µM
[6] = second compound 0.003 µM, first compound 0.0316 µM
[7] = second compound 0.003 µM, first compound 0.1 µM
[8] = second compound 0.003 µM, first compound 0.316 µM
[9] = second compound 0.003 µM, first compound 1 µM
[10] = second compound 0.003 µM, first compound 3.16 µM
[11] = second compound 0.003 µM, first compound 10 µM
[12] = second compound 0.00949 µM, first compound 0.0316 µM
[13] = second compound 0.00949 µM, first compound 0.1 µM
[14] = second compound 0.00949 µM, first compound 0.316 µM
[15] = second compound 0.00949 µM, first compound 1 µM
[16] = second compound 0.00949 µM, first compound 3.16 µM
[17] = second compound 0.00949 µM, first compound 10 µM
[18] = second compound 0.03 µM, first compound 0.0316 µM
[19] = second compound 0.03 µM, first compound 0.1 µM
[20] = second compound 0.03 µM, first compound 0.316 µM
[21] = second compound 0.03 µM, first compound 1 µM
[22] = second compound 0.03 µM, first compound 3.16 µM
[23] = second compound 0.03 µM, first compound 10 µM
[24] = second compound 0.0949 µM, first compound 0.0316 µM
[25] = second compound 0.0949 µM, first compound 0.1 µM
[26] = second compound 0.0949 µM, first compound 0.316 µM
[27] = second compound 0.0949 µM, first compound 1 µM
[28] = second compound 0.0949 µM, first compound 3.16 µM
[29] = second compound 0.0949 µM, first compound 10 µM
[30] = second compound 0.3 µM, first compound 0.0316 µM
[31] = second compound 0.3 µM, first compound 0.1 µM
[32] = second compound 0.3 µM, first compound 0.316 µM
[33] = second compound 0.3 µM, first compound 1 µM
[34] = second compound 0.3 µM, first compound 3.16 µM
[35] = second compound 0.3 µM, first compound 10 µM

O=C(c1cc(Cc2n[nH]c(=O)c3ccccc23)ccc1F)N1CCN(C(=O)C2CC2)CC1 + COc1cc2c(cc1O)CCNC21CSC2c3c(OC(C)=O)c(C)c4c(c3C(COC1=O)N1C(O)C3Cc5cc(C)c(OC)c(O)c5C(C21)N3C)OCO4
< 94.9 nM: IC50 (curve of first compound, second compound 0.000949 µM) | IC50 [1]
153 nM: IC50 (curve of first compound, second compound 0.0003 µM)
1620 nM: IC50 (curve of first compound, second compound 94.9 pM)
inactive: viability, T/C (second compound 30 pM, first compound 0.0949 µM) 91.7% | viability, T/C (second compound 30 pM, first compound 0.3 µM) 79.2% | viability, T/C (second compound 30 pM, first compound 0.949 µM) 57.2% | viability, T/C (second compound 30 pM, first compound 3 µM) 72.7% | viability, T/C (second compound 30 pM, first compound 9.49 µM) 38.3% | viability, T/C (second compound 30 pM, first compound 30 µM) 25.2% | viability, T/C (second compound 94.9 pM, first compound 0.0949 µM) 50.1% | viability, T/C (second compound 94.9 pM, first compound 0.3 µM) 57.1% | viability, T/C (second compound 94.9 pM, first compound 0.949 µM) 70% | viability, T/C (second compound 94.9 pM, first compound 3 µM) 39.7% | viability, T/C (second compound 94.9 pM, first compound 9.49 µM) 29.7% | viability, T/C (second compound 94.9 pM, first compound 30 µM) 25.1% | viability, T/C (second compound 0.0003 µM, first compound 0.0949 µM) 53.5% | viability, T/C (second compound 0.0003 µM, first compound 0.3 µM) 44.5% | viability, T/C (second compound 0.0003 µM, first compound 0.949 µM) 40.3% | viability, T/C (second compound 0.0003 µM, first compound 3 µM) 34.5% | viability, T/C (second compound 0.0003 µM, first compound 9.49 µM) 28.6% | viability, T/C (second compound 0.0003 µM, first compound 30 µM) 25.3% | viability, T/C (second compound 0.000949 µM, first compound 0.0949 µM) 26.8% | viability, T/C (second compound 0.000949 µM, first compound 0.3 µM) 29.3% | viability, T/C (second compound 0.000949 µM, first compound 0.949 µM) 25.9% | viability, T/C (second compound 0.000949 µM, first compound 3 µM) 24.8% | viability, T/C (second compound 0.000949 µM, first compound 9.49 µM) 21.5% | viability, T/C (second compound 0.000949 µM, first compound 30 µM) 14.8%
active: viability, T/C (second compound 0.003 µM, first compound 0.0949 µM) 7.65% | viability, T/C (second compound 0.003 µM, first compound 0.3 µM) 7.5% | viability, T/C (second compound 0.003 µM, first compound 0.949 µM) 5.51% | viability, T/C (second compound 0.003 µM, first compound 3 µM) 6.23% | viability, T/C (second compound 0.003 µM, first compound 9.49 µM) 3.48% | viability, T/C (second compound 0.003 µM, first compound 30 µM) 2.13%
5280 nM: IC50 (curve of first compound, second compound 30 pM)

Cc1cc(C)c(CNC(=O)c2cc(-c3ccc(CN4CCOCC4)cc3)cc3c2cnn3C2CCCC2)c(=O)[nH]1
> 10000 nM: IC50 (curve of compound)
inactive: viability, T/C (compound 0.0316 µM) 75.2% and 93.7% and 93.8% | viability, T/C (compound 0.1 µM) 119% and 109% and 93.5% | viability, T/C (compound 0.316 µM) 90.4% and 118% and 91.3% | viability, T/C (compound 1 µM) 97.2% and 101% and 92.3% | viability, T/C (compound 3.16 µM) 107% and 114% and 98.7% | viability, T/C (compound 10 µM) 79.3% and 100% and 107%

COc1cc(C)[nH]c(=O)c1CN1CCc2c(Cl)cc(C(OC)C3COC3)c(Cl)c2C1=O (centres undefined) + CC[C@@]1(O)C(=O)OCc2c1cc1n(c2=O)Cc2cc3c(CN(C)C)c(O)ccc3nc2-1
> 10000 nM: IC50 [1] | IC50 [2]
< 31.6 nM: IC50 [3] | IC50 [4] | IC50 [5]
inactive: viability, T/C [6] 92.6% | viability, T/C [7] 95.7% | viability, T/C [8] 91.3% | viability, T/C [9] 103% | viability, T/C [10] 93.6% | viability, T/C [11] 95.5% | viability, T/C [12] 96.6% | viability, T/C [13] 88.5% | viability, T/C [14] 96.4% | viability, T/C [15] 78% | viability, T/C [16] 77.9% | viability, T/C [17] 86.3% | viability, T/C [18] 46.4% | viability, T/C [19] 49.5% | viability, T/C [20] 51.5% | viability, T/C [21] 49.2% | viability, T/C [22] 54.2% | viability, T/C [23] 51.6% | viability, T/C [24] 48.5% | viability, T/C [25] 41.7% | viability, T/C [26] 43.7% | viability, T/C [27] 47.7% | viability, T/C [28] 45.7% | viability, T/C [29] 46.7% | viability, T/C [30] 37% | viability, T/C [31] 39.2% | viability, T/C [32] 39.2% | viability, T/C [33] 37.3% | viability, T/C [34] 37.7% | viability, T/C [35] 39.5%

[2H]c1nc(C)nc([2H])c1-c1cc(NC[C@@H](C)c2cccc3c(C(=O)NC)ccnc23)ncn1 + CC[C@@]1(O)C(=O)OCc2c1cc1n(c2=O)Cc2cc3c(CN(C)C)c(O)ccc3nc2-1
< 31.6 nM: IC50 [3] | IC50 [4] | IC50 [5]
inactive: viability, T/C [6] 96.5% | viability, T/C [7] 107% | viability, T/C [8] 93.5% | viability, T/C [9] 99.7% | viability, T/C [10] 92.4% | viability, T/C [11] 67.8% | viability, T/C [12] 74.5% | viability, T/C [13] 58.1% | viability, T/C [14] 77.8% | viability, T/C [15] 74.2% | viability, T/C [16] 49.4% | viability, T/C [17] 59.9% | viability, T/C [18] 39.3% | viability, T/C [19] 39.7% | viability, T/C [20] 37.6% | viability, T/C [21] 36.4% | viability, T/C [22] 37.8% | viability, T/C [23] 36.2% | viability, T/C [24] 38.5% | viability, T/C [25] 37.5% | viability, T/C [26] 39.4% | viability, T/C [27] 35.4% | viability, T/C [28] 34% | viability, T/C [29] 35.1% | viability, T/C [30] 33.1% | viability, T/C [31] 31% | viability, T/C [32] 29.9% | viability, T/C [33] 30.8% | viability, T/C [34] 28.1% | viability, T/C [35] 25.9%
> 10000 nM: IC50 [1] | IC50 [2]

CC(C)n1c(=O)n(C)c2cnc3cc(F)c(-c4ccc(OCCCN5CCCCC5)nc4)cc3c21 + Cn1nnc2c(C(N)=O)ncn2c1=O
> 10000 nM: IC50 (curve of first compound, second compound 1 µM) | IC50 (curve of first compound, second compound 3.16 µM) | IC50 (curve of first compound, second compound 10 µM) | IC50 (curve of first compound, second compound 31.6 µM) | IC50 (curve of first compound, second compound 100 µM)
inactive: viability, T/C (second compound 1 µM, first compound 0.0316 µM) 87.4% | viability, T/C (second compound 1 µM, first compound 0.1 µM) 83.7% | viability, T/C (second compound 1 µM, first compound 0.316 µM) 82.6% | viability, T/C (second compound 1 µM, first compound 1 µM) 77.9% | viability, T/C (second compound 1 µM, first compound 3.16 µM) 79.4% | viability, T/C (second compound 1 µM, first compound 10 µM) 61.9% | viability, T/C (second compound 3.16 µM, first compound 0.0316 µM) 84.6% | viability, T/C (second compound 3.16 µM, first compound 0.1 µM) 82.9% | viability, T/C (second compound 3.16 µM, first compound 0.316 µM) 92.5% | viability, T/C (second compound 3.16 µM, first compound 1 µM) 99% | viability, T/C (second compound 3.16 µM, first compound 3.16 µM) 84.9% | viability, T/C (second compound 3.16 µM, first compound 10 µM) 65.2% | viability, T/C (second compound 10 µM, first compound 0.0316 µM) 76.6% | viability, T/C (second compound 10 µM, first compound 0.1 µM) 92.4% | viability, T/C (second compound 10 µM, first compound 0.316 µM) 82.4% | viability, T/C (second compound 10 µM, first compound 1 µM) 74.8% | viability, T/C (second compound 10 µM, first compound 3.16 µM) 77.7% | viability, T/C (second compound 10 µM, first compound 10 µM) 72.1% | viability, T/C (second compound 31.6 µM, first compound 0.0316 µM) 88.2% | viability, T/C (second compound 31.6 µM, first compound 0.1 µM) 89% | viability, T/C (second compound 31.6 µM, first compound 0.316 µM) 68.6% | viability, T/C (second compound 31.6 µM, first compound 1 µM) 81.8% | viability, T/C (second compound 31.6 µM, first compound 3.16 µM) 83.7% | viability, T/C (second compound 31.6 µM, first compound 10 µM) 68.8% | viability, T/C (second compound 100 µM, first compound 0.0316 µM) 76.8% | viability, T/C (second compound 100 µM, first compound 0.1 µM) 71.8% | viability, T/C (second compound 100 µM, first compound 0.316 µM) 74.2% | viability, T/C (second compound 100 µM, first compound 1 µM) 71.2% | viability, T/C (second compound 100 µM, first compound 3.16 µM) 91% | viability, T/C (second compound 100 µM, first compound 10 µM) 67.2%

CC1COCCN1c1cc(-c2ccnn2C)c2ccnc(-c3ccn[nH]3)c2n1 (centres undefined)
65.9 nM and 315 nM and 154 nM: IC50 (curve of compound)
inactive: viability, T/C (compound 0.0316 µM) 54.6% and 70.5% and 65.8% | viability, T/C (compound 0.1 µM) 47.8% and 60% and 55.1% | viability, T/C (compound 0.316 µM) 37.7% and 46.4% and 41.8% | viability, T/C (compound 1 µM) 39.5% and 46.2% and 33.2% | viability, T/C (compound 3.16 µM) 28.1% and 34.2% and 28.3% | viability, T/C (compound 10 µM) 22.3% and 30.9% and 25%
